In experiment [1] the test system is monoclonal antibody to bFGF. As to the kind of experiment: Competitive binding: blocking of phage binding to the anti-bFGF antibody. On the set-up: species or system mouse. The note with it: phage containing the sequence P-R-G-H-W-K-Q (SEQ ID NO: 9); competitive binding experiments. On the procedure: A monoclonal antibody raised against human basic FGF (bFGF) was used as a biopanning target using a 7-mer peptide library in a bacteriophage M13 vector. To prepare the biopanning plates, four wells of an Immulon4 microtiter plate (Dynatech) were coated with stepavidin (1 μg/well) in 100 mM NaHCO3, pH 9.5, for 2 hours at room temperature or overnight at 4° C. The strepavidin-coated wells were washed three times with phosphate-buffered saline (PBS). To each well containing strepavidin, biotinylated rat anti mouse antibody K light chain (PharMingen) was added, at 1 μg/well, in PBS for 30 minutes to 1 hour at room temperature. The wells were then washed again with PBS three times. Non-specific binding sites were blocked with 300 μl/well PBS, 1% dry milk for 1 hour at room temperature. The wells were then washed with PBS, 0.1% dry milk three times, loaded with 50 μl/well PBS, 0.1% dry milk and stored at 4° C. […]
After the 2 hour room temperature incubation of the phage with the antibody, the PBS, 0.1% milk buffer was removed from the wells of the strepavidin/biotinylated α-mouse complex plates and the corresponding 100 μl of each tube containing the antibody/phage mixture was added to each of the four wells. […] The phage eluant was titered and the fractional yield determined. […]

Experiment [2] relates to anti-FGF monoclonal antibody. As to the kind of experiment: FGF binding assay: inhibition of radiolabeled FGF binding to biotinylated anti-FGF antibody. On the set-up: species or system mouse. The protocol: FIG. 1 is a graph depicting the ability of compounds PPI-432, PPI-652 and PPI-654 to inhibit the binding of radiolabeled FGF to an anti-FGF antibody.
The activities of the libraries were tested using an FGF binding assay. […] Since Libraries I and II are highly diverse, the active non-peptide compounds should have a spectrum of potencies which cumulatively yield the average potency seen in the library.
The eluted non-peptide compounds were brought to dryness under vacuum. Recovered non-peptide compounds were dissolved in 50 μl water and tested for their ability to block the interaction of bFGF with the target protein. (Assuming 100% recovery of non-peptide compounds and 100% binding to bivalent antibody, the amount of recovered non-peptide compounds was calculated to be 200 ng).
Several of the non-peptide compounds selected from the combinatorial library were made synthetically and compared to the starting peptide (PPI-432) for their ability to bind to the target protein. The compounds were synthesized with an amino-terminal acetyl group and a carboxy-terminal amide. The potency of two non-peptide compounds (PPI-652 and PPI-654, shown in Table 2), containing modified amino acids at positions 5 and 7, were compared to the starting peptide PPI-432 in their ability to inhibit radiolabeled FGF binding to biotinylated anti-FGF antibody. […]

“G-A-F-P-P-G-H-F-K-D-P-D-R-L (GAFPPGHFKDPDRL) [PPI-416]”: the “blocking of phage binding to the antibody” value in experiment [1] is given as “blocked”. Further, the “blocking of the binding of bFGF to the antibody” value in experiment [2] was “blocked”.
With P-P-G-H-F-K-D (PPGHFKD) [PPI-432], the “blocking of the binding of bFGF to the antibody” value in experiment [2] was “blocked”.

Source of the values: patent US20080032896A1, “Methods for identifying compounds that bind to a target” (priority 1995, published 2008).
